Results as given in PubChem BioAssay (NCI).
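48-hour exposure; five concentrations; linearly interpolated endpoints. GI50 is the concentration that inhibits growth by half. TGI: total growth inhibition.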

Columns and labels:
Assay in all cases: NCI anticancer screen, dose series, 48 h; in the data active = GI50 below about 0.43 µM; inactive = the rest
ACHN renal = test system: ACHN renal
BT-549 breast = test system: BT-549 breast
RPMI-8226 leukemia = test system: RPMI-8226 leukemia
MCF7 breast = test system: MCF7 breast
HCT-116 colon = test system: HCT-116 colon
OVCAR-4 ovarian = test system: OVCAR-4 ovarian
NCI-H23 lung = test system: NCI-H23 lung
OVCAR-8 ovarian = test system: OVCAR-8 ovarian
SF-539 CNS = test system: SF-539 CNS
786-0 renal = test system: 786-0 renal
COLO 205 colon = test system: COLO 205 colon
SK-MEL-2 melanoma = test system: SK-MEL-2 melanoma
SF-268 CNS = test system: SF-268 CNS
OVCAR-3 ovarian = test system: OVCAR-3 ovarian
SK-MEL-5 melanoma = test system: SK-MEL-5 melanoma
SN12C renal = test system: SN12C renal
EKVX NSCLC = test system: EKVX NSCLC
HOP-62 NSCLC = test system: HOP-62 NSCLC
PC-3 prostate = test system: PC-3 prostate
SNB-19 CNS = test system: SNB-19 CNS
HL-60(TB) leukemia = test system: HL-60(TB) leukemia
MALME-3M melanoma = test system: MALME-3M melanoma
M14 melanoma = test system: M14 melanoma
SW-620 colon = test system: SW-620 colon
CCRF-CEM leukemia = test system: CCRF-CEM leukemia
KM12 colon = test system: KM12 colon
LOX IMVI melanoma = test system: LOX IMVI melanoma
SR leukemia = test system: SR leukemia
MOLT-4 leukemia = test system: MOLT-4 leukemia
MDA-MB-435 = test system: MDA-MB-435
NCI-H460 lung = test system: NCI-H460 lung
TK-10 renal = test system: TK-10 renal
UACC-62 melanoma = test system: UACC-62 melanoma
SK-OV-3 ovarian = test system: SK-OV-3 ovarian
MDA-MB-468 breast = test system: MDA-MB-468 breast
A498 renal = test system: A498 renal
IGROV1 ovarian = test system: IGROV1 ovarian
RXF 393 renal = test system: RXF 393 renal
MDA-MB-231 breast = test system: MDA-MB-231 breast
UO-31 renal = test system: UO-31 renal
NCI-H522 lung = test system: NCI-H522 lung
A549 NSCLC = test system: A549 NSCLC
K-562 leukemia = test system: K-562 leukemia
OVCAR-5 ovarian = test system: OVCAR-5 ovarian
U251 CNS = test system: U251 CNS
CAKI-1 renal = test system: CAKI-1 renal
SF-295 CNS = test system: SF-295 CNS
T-47D breast = test system: T-47D breast
HCT-15 colon = test system: HCT-15 colon
HOP-92 NSCLC = test system: HOP-92 NSCLC
DU-145 prostate = test system: DU-145 prostate
HT29 colon = test system: HT29 colon
UACC-257 melanoma = test system: UACC-257 melanoma
NCI-H226 lung = test system: NCI-H226 lung
SK-MEL-28 melanoma = test system: SK-MEL-28 melanoma
HS 578T breast = test system: HS 578T breast
NCI/ADR-RES ovarian = test system: NCI/ADR-RES ovarian
HCC-2998 colon = test system: HCC-2998 colon

CC(=O)c1ccc(Nc2nc(SC(C)C)nc(-c3ccccc3)c2C#N)cc1
7.14 µM: TGI (NCI-H226 lung)
64.1 µM: TGI (SW-620 colon)
8.23 µM: TGI (MDA-MB-231 breast)
3.25 µM: TGI (SF-295 CNS)
11.2 µM: TGI (NCI-H23 lung)
6.69 µM: TGI (HCT-116 colon)
13.2 µM: TGI (CAKI-1 renal)
7.86 µM: TGI (HOP-92 NSCLC)
20.3 µM: TGI (SK-MEL-5 melanoma)
23.8 µM: TGI (HS 578T breast)
10.6 µM: TGI (NCI/ADR-RES ovarian)
38.9 µM: TGI (SK-OV-3 ovarian)
4.94 µM: TGI (UO-31 renal)
4.63 µM: TGI (SNB-19 CNS)
5.38 µM: TGI (HOP-62 NSCLC)
> 100 µM: TGI (BT-549 breast) | TGI (RPMI-8226 leukemia) | TGI (MCF7 breast) | TGI (OVCAR-4 ovarian) | TGI (OVCAR-8 ovarian) | TGI (COLO 205 colon) | TGI (SK-MEL-2 melanoma) | TGI (SF-268 CNS) | TGI (OVCAR-3 ovarian) | TGI (SN12C renal) | TGI (EKVX NSCLC) | TGI (PC-3 prostate) | TGI (HL-60(TB) leukemia) | TGI (MALME-3M melanoma) | TGI (M14 melanoma) | TGI (CCRF-CEM leukemia) | TGI (KM12 colon) | TGI (LOX IMVI melanoma) | TGI (SR leukemia) | TGI (MOLT-4 leukemia) | TGI (MDA-MB-435) | TGI (NCI-H460 lung) | TGI (UACC-62 melanoma) | TGI (IGROV1 ovarian) | TGI (NCI-H522 lung) | TGI (A549 NSCLC) | TGI (K-562 leukemia) | TGI (OVCAR-5 ovarian) | TGI (T-47D breast) | TGI (HCT-15 colon) | TGI (DU-145 prostate) | TGI (HT29 colon) | TGI (UACC-257 melanoma) | TGI (SK-MEL-28 melanoma) | TGI (HCC-2998 colon)
5.67 µM: TGI (TK-10 renal)
7.69 µM: TGI (SF-539 CNS)
7.48 µM: TGI (RXF 393 renal)
4.81 µM: TGI (786-0 renal)
5.17 µM: TGI (ACHN renal)
50.2 µM: TGI (MDA-MB-468 breast)
inactive: GI50 (ACHN renal) 2.15 µM | GI50 (BT-549 breast) 24.8 µM | GI50 (RPMI-8226 leukemia) > 100 µM | GI50 (MCF7 breast) 4.74 µM | GI50 (HCT-116 colon) 1.34 µM | GI50 (OVCAR-4 ovarian) 5.07 µM | GI50 (NCI-H23 lung) 2.46 µM | GI50 (OVCAR-8 ovarian) 3.29 µM | GI50 (SF-539 CNS) 2.17 µM | GI50 (786-0 renal) 2.07 µM | GI50 (COLO 205 colon) 15.6 µM | GI50 (SK-MEL-2 melanoma) > 100 µM | GI50 (SF-268 CNS) 5.35 µM | GI50 (OVCAR-3 ovarian) 40 µM | GI50 (SK-MEL-5 melanoma) 5.03 µM | GI50 (SN12C renal) 11.4 µM | GI50 (EKVX NSCLC) 4.71 µM | GI50 (HOP-62 NSCLC) 2.13 µM | GI50 (PC-3 prostate) 8.98 µM | GI50 (SNB-19 CNS) 2.05 µM | GI50 (HL-60(TB) leukemia) > 100 µM | GI50 (MALME-3M melanoma) 14.1 µM | GI50 (M14 melanoma) 21.9 µM | GI50 (SW-620 colon) 3.77 µM | GI50 (CCRF-CEM leukemia) > 100 µM | GI50 (KM12 colon) > 100 µM | GI50 (LOX IMVI melanoma) 3.51 µM | GI50 (SR leukemia) > 100 µM | GI50 (MOLT-4 leukemia) > 100 µM | GI50 (MDA-MB-435) 5.06 µM | GI50 (NCI-H460 lung) 3.53 µM | GI50 (TK-10 renal) 2.54 µM | GI50 (UACC-62 melanoma) 43.8 µM | GI50 (SK-OV-3 ovarian) 5.02 µM | GI50 (MDA-MB-468 breast) 5.08 µM | GI50 (A498 renal) 24.2 µM | GI50 (IGROV1 ovarian) 8.02 µM | GI50 (RXF 393 renal) 2.08 µM | GI50 (MDA-MB-231 breast) 2.9 µM | GI50 (UO-31 renal) 2.03 µM | GI50 (NCI-H522 lung) 8.3 µM | GI50 (A549 NSCLC) 72.9 µM | GI50 (K-562 leukemia) 9.17 µM | GI50 (OVCAR-5 ovarian) 21.2 µM | GI50 (U251 CNS) 1.32 µM | GI50 (CAKI-1 renal) 2.82 µM | GI50 (SF-295 CNS) 1.4 µM | GI50 (T-47D breast) 81.6 µM | GI50 (HCT-15 colon) 7.61 µM | GI50 (HOP-92 NSCLC) 1.91 µM | GI50 (DU-145 prostate) 17.6 µM | GI50 (HT29 colon) 3.81 µM | GI50 (UACC-257 melanoma) > 100 µM | GI50 (NCI-H226 lung) 2.54 µM | GI50 (SK-MEL-28 melanoma) 16.9 µM | GI50 (HS 578T breast) 3.09 µM | GI50 (NCI/ADR-RES ovarian) 2.82 µM | GI50 (HCC-2998 colon) 15.8 µM
4.26 µM: TGI (U251 CNS)
71.9 µM: TGI (A498 renal)
